Laboratory results as given in the NIST ThermoML archive (doi:10.1016/j.tca.2008.12.007).
Numbers after ± are expanded uncertainties.

Test: xn = mol fraction of the nth substance listed
Settings: 101 kPa, Liquid, Vibrating tube method

C1CCCNCC1 [azacycloheptane] + O
mass density [kg/m3]
Settings | 313.15 K | 318.15 K | 323.15 K | 333.15 K
x2 = 0.0199 | – | 860.37 ± 0.29 | 855.9 ± 0.3 | 846.92 ± 0.3
x2 = 0.0395 | – | 861.39 ± 0.29 | 856.9 ± 0.29 | 847.9 ± 0.29
x2 = 0.0821 | – | 863.99 ± 0.27 | 859.48 ± 0.28 | 850.41 ± 0.28
x2 = 0.1198 | – | 866.23 ± 0.26 | 861.7 ± 0.26 | 852.59 ± 0.26
x2 = 0.1594 | – | 868.63 ± 0.25 | 864.08 ± 0.25 | 854.93 ± 0.25
x2 = 0.1994 | – | 871.37 ± 0.24 | 866.81 ± 0.24 | 857.62 ± 0.24
x2 = 0.2498 | – | 874.79 ± 0.22 | 870.21 ± 0.23 | 860.98 ± 0.23
x2 = 0.3 | 882.83 ± 0.21 | 878.26 ± 0.21 | 873.67 ± 0.21 | 864.4 ± 0.21
x2 = 0.3499 | 886.76 ± 0.2 | 882.18 ± 0.2 | 877.58 ± 0.2 | 868.28 ± 0.2
x2 = 0.4 | 890.72 ± 0.19 | 886.14 ± 0.19 | 881.52 ± 0.19 | 872.21 ± 0.19
x2 = 0.4529 | 895.39 ± 0.17 | 890.8 ± 0.18 | 886.19 ± 0.18 | 876.87 ± 0.18
x2 = 0.5008 | 899.86 ± 0.15 | 895.29 ± 0.16 | 890.68 ± 0.16 | 881.36 ± 0.16
x2 = 0.5041 | 899.86 ± 0.15 | 895.28 ± 0.15 | 890.68 ± 0.16 | 881.35 ± 0.16
x2 = 0.5508 | 904.48 ± 0.15 | 899.93 ± 0.16 | 895.33 ± 0.16 | 886.03 ± 0.16
x2 = 0.5992 | 909.37 ± 0.15 | 904.85 ± 0.15 | 900.28 ± 0.15 | –
x2 = 0.65 | 915.05 ± 0.14 | 910.58 ± 0.14 | 906.06 ± 0.14 | –
x2 = 0.699 | 920.96 ± 0.13 | 916.55 ± 0.14 | 912.1 ± 0.14 | –
x2 = 0.7496 | 927.77 ± 0.13 | 923.47 ± 0.14 | 919.11 ± 0.14 | –
x2 = 0.7994 | 935.59 ± 0.14 | 931.44 ± 0.14 | 927.23 ± 0.14 | –
x2 = 0.8398 | 942.92 ± 0.15 | 938.93 ± 0.15 | 934.88 ± 0.15 | –
x2 = 0.8799 | 951.63 ± 0.17 | 947.87 ± 0.17 | 944.03 ± 0.17 | –
x2 = 0.92 | 962.53 ± 0.2 | 959.11 ± 0.2 | 955.59 ± 0.21 | –
x2 = 0.9599 | 976.48 ± 0.22 | 973.55 ± 0.23 | 970.5 ± 0.24 | –
x2 = 0.96 | 976.54 ± 0.26 | 973.61 ± 0.27 | 970.56 ± 0.28 | –
x2 = 0.9699 | 980.66 ± 0.26 | 977.9 ± 0.27 | 975.01 ± 0.28 | –
x2 = 0.98 | 985.06 ± 0.26 | 982.5 ± 0.28 | 979.8 ± 0.29 | –
